Data reported in patent US20220378923A1, “BET DEGRADER” (KYOWA KIRIN CO., LTD., priority 2019, published 2022).
Like-named read-outs stand apart in the source and are kept apart here.

Legend:
DCAF16 KO SU-DHL-4 cells = experiment: Inhibitory effect on cell viability using SU-DHL-4 DCAF16 knock out (KO) cell line (Test Example 6); type: cell-based, human; conditions: for Activity Attenuation Ratio: (SU-DHL-4 DCAF16 KO IC50)/(SU-DHL-4 WT IC50); for IC50: DCAF16 KO SU-DHL-4 cells, 72 hours, Cell Counting Kit-8, 50% inhibition of cell viability
Method in brief: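 SU-DHL-4 DLBCL cells carrying lentiviral Cas9 plus DCAF16-targeting sgRNA (three KO strains; non-targeting control strain), seeded 2000 cells/well, pre-cultured 18–25 h, then given 9-step compound dilutions (0.1% DMSO final) for 72 h at 37° C. Viability read by CCK-8 colorimetric assay.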

SU-DHL-4 cells = experiment: Inhibitory effect on cell viability in SU-DHL-4 cell line (Test Example 1); type: cell-based, human; conditions: 72 hours; for IC50: SU-DHL-4 (wild type) cells, calculated using the measurement results of test example 1, read-out: SU-DHL-4 WT IC50; for IC90: SU-DHL-4 cells, Cell Counting Kit-8, concentration showing 90% inhibition of cell viability, read-out: SU-DHL-4 Cell Viability Inhibition Rate IC90
Method in brief: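 SU-DHL-4 cells were grown at 37° C. under 5% CO2 in RPMI1640 with 10 vol % heat-inactivated FBS plus penicillin/streptomycin, seeded and precultured for 18 to 25 hours, then exposed to test compound at 0.1 vol % DMSO for 72 hours. Viability was read with Cell Counting Kit-8 by absorbance at 450 nm.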

| IC50 (DCAF16 KO SU-DHL-4 cells; Homo sapiens) [nM] | IC50 (SU-DHL-4 cells; Homo sapiens) [nM] | IC90 (SU-DHL-4 cells; Homo sapiens) [nM] | IC50 (DCAF16 KO SU-DHL-4 cells) [nM] | IC50 (SU-DHL-4 cells) [nM] | IC90 (SU-DHL-4 cells) [nM] | Structure (SMILES) | Activity Attenuation Ratio (DCAF16 KO SU-DHL-4 cells) |
| --- | --- | --- | --- | --- | --- | --- | --- |
| 4 | 0.017 |  |  |  |  | CCC(=O)N1c2ccccc2[C@H](Nc2ccc(-c3cnn(CC(=O)Nc4ccc(C5=NCc6nnc(C)n6-c6sc(C)c(C)c65)cc4)c3)cc2)C[C@@H]1C [Compound 14a, 2-(4-(4-(((2S,4R)-2-Methyl-1-propionyl-1,2,3,4-tetrahydroquinolin-4-yl)amino)phenyl)-1H-pyrazol-1-yl)-N-(4-(2,3,9-trimethyl-6H-thieno[3,2-f][1,2,4]triazolo[4,3-a][1,4]diazepin-4-yl)phenyl)acetamide] | 228 |
| 9.61 | 0.1 |  |  |  |  | CCC(=O)N1c2ccccc2[C@H](Nc2ccc(NC(=O)COCC(=O)Nc3ccc(C4=NCc5nnc(C)n5-c5sc(C)c(C)c54)cc3)cc2)C[C@@H]1C [Compound 14d, N-(4-(((2S,4R)-2-Methyl-1-propionyl-1,2,3,4-tetrahydroquinolin-4-yl)amino)phenyl)-2-(2-oxo-2-((4-(2,3,9-trimethyl-6H-thieno[3,2-f][1,2,4]triazolo[4,3-a][1,4]diazepin-4-yl)phenyl)amino)ethoxy)acetamide] | 96 |
| 68.3 | 0.21 |  |  |  |  | Cc1sc2c(c1C)C(c1ccc(NC(=O)C#CCNC(=O)c3ccc(C4=NCc5nnc(C)n5-c5sc(C)c(C)c54)cc3)cc1)=NCc1nnc(C)n1-2 [Compound 14e, N-(4-Oxo-4-((4-(2,3,9-trimethyl-6H-thieno[3,2-f][1,2,4]triazolo[4,3-a][1,4]diazepin-4-yl)phenyl)amino)but-2-yn-1-yl)-4-(2,3,9-trimethyl-6H-thieno[3,2-f][1,2,4]triazolo[4,3-a][1,4]diazepin-4-yl)benzamide] | 332 |
| 2.95 | 0.14 |  |  |  |  | CCC(=O)N1c2ccccc2[C@H](Nc2ccc(NC(=O)CNC(=O)Nc3ccc(C4=NCc5nnc(C)n5-c5sc(C)c(C)c54)cc3)cc2)C[C@@H]1C [Compound 14f, N-(4-(((2S,4R)-2-Methyl-1-propionyl-1,2,3,4-tetrahydroquinolin-4-yl)amino)phenyl)-2-(3-(4-(2,3,9-trimethyl-6H-thieno[3,2-f][1,2,4]triazolo[4,3-a][1,4]diazepin-4-yl)phenyl)ureido)acetamide] | 22 |
| 407 | 1 |  |  |  |  | Cc1sc2c(c1C)C(c1ccc(C(=O)N3CCC(NC(=O)c4ccc(C5=N[C@@H](CC(=O)OC(C)(C)C)c6nnc(C)n6-c6sc(C)c(C)c65)cc4)CC3)cc1)=NCc1nnc(C)n1-2 [Compound 14p, tert-Butyl (S)-2-(2,3,9-trimethyl-4-(4-((1-(4-(2,3,9-trimethyl-6H-thieno[3,2-f][1,2,4]triazolo[4,3-a][1,4]diazepin-4-yl)benzoyl)piperidin-4-yl)carbamoyl)phenyl)-6H-thieno[3,2-f][1,2,4]triazolo[4,3-a][1,4]diazepin-6-yl)acetate] | 408 |
|  |  |  | 63 | 0.28 | 0.34 | CCC(=O)N1c2ccccc2[C@H](Nc2ccc(NC(=O)CCCC(=O)Nc3ccc(Cn4c(C(=O)OCCN(C)C)cc5c4CCCC5=O)cc3)cc2)C[C@@H]1C [Compound 15a, 2-(Dimethylamino)ethyl 1-(4-(5-((4-(((2S,4R)-2-methyl-1-propionyl-1,2,3,4-tetrahydroquinolin-4-yl)amino)phenyl)amino)-5-oxopentanamide)benzyl)-4-oxo-4,5,6,7-tetrahydro-1H-indole-2-carboxylate] | 225 |
| 858 | 0.11 |  |  |  |  | CCC(=O)N1c2ccccc2[C@H](Nc2ccc(-c3cnn(CCNC(=O)c4ccc(Cn5c(C(=O)OCCN(C)C)cc6c5CCCC6=O)cc4)c3)cc2)C[C@@H]1C [Compound 15d, 2-(Dimethylamino)ethyl 1-(4-((2-(4-(4-(((2S,4R)-2-methyl-1-propionyl-1,2,3,4-tetrahydroquinolin-4-yl)amino)phenyl)-1H-pyrazol-1-yl)ethyl)carbamoyl)benzyl)-4-oxo-4,5,6,7-tetrahydro-1H-indole-2-carboxylate] | 7994 |
| 28.3 | 0.03 |  |  |  |  | CCC(=O)N1c2ccccc2[C@H](Nc2ccc(-n3cc(CNC(=O)c4ccc(Cn5c(CC)cc6c5CCCC6=O)cc4)nn3)cc2)C[C@@H]1C [Compound 15f, 4-((2-Ethyl-4-oxo-4,5,6,7-tetrahydro-1H-indol-1-yl)methyl)-N-((1-(4-(((2S,4R)-2-methyl-1-propionyl-1,2,3,4-tetrahydroquinolin-4-yl)amino)phenyl)-1H-1,2,3-triazol-4-yl)methyl)benzamide] | 902 |

The remaining lines, values behind:

| Structure (SMILES) | IC50 (DCAF16 KO SU-DHL-4 cells; Homo sapiens) [nM] | IC50 (SU-DHL-4 cells; Homo sapiens) [nM] | IC90 (SU-DHL-4 cells; Homo sapiens) [nM] | IC50 (DCAF16 KO SU-DHL-4 cells) [nM] | IC50 (SU-DHL-4 cells) [nM] | IC90 (SU-DHL-4 cells) [nM] | Activity Attenuation Ratio (DCAF16 KO SU-DHL-4 cells) |
| --- | --- | --- | --- | --- | --- | --- | --- |
| CCC(=O)N1c2ccccc2[C@H](Nc2ccc(NC(=O)CCCC(=O)NC3CCN(Cc4cc(O)cc(-c5c(C)noc5C)c4)CC3)cc2)C[C@@H]1C [Compound 12c, N^1-(1-(3-(3,5-Dimethylisoxazol-4-yl)-5-hydroxybenzyl)piperidin-4-yl)-N^5-(4-(((2S,4R)-2-methyl-1-propionyl-1,2,3,4-tetrahydroquinolin-4-yl)amino)phenyl)glutaramide] | > 10000 | 0.22 | 0.56 |  |  |  | >44436 |
| CCC(=O)N1c2ccccc2[C@H](Nc2ccc(SCCNC(=O)c3ccc(C4=N[C@@H](CC(=O)OCCN(C)C)c5nnc(C)n5-c5sc(C)c(C)c54)cc3)cc2)C[C@@H]1C [Compound 13a, 2-(Dimethylamino)ethyl 2-((S)-2,3,9-trimethyl-4-(4-((2-((4-(((2S,4R)-2-methyl-1-propionyl-1,2,3,4-tetrahydroquinolin-4-yl)amino)phenyl)thio)ethyl)carbamoyl)phenyl)-6H-thieno[3,2-f][1,2,4]triazolo[4,3-a][1,4]diazepin-6-yl)acetate] | 9.31 | 0.26 |  |  |  |  | 35 |
| CCC(=O)N1c2ccccc2[C@H](Nc2ccc(C(=O)NCCCNC(=O)c3ccc(C4=N[C@@H](CC(=O)OC5CCC(O)CC5)c5nnc(C)n5-c5sc(C)c(C)c54)cc3)cc2)C[C@@H]1C (stereo partly drawn) [Compound 13d, 4-Hydroxycyclohexyl 2-((S)-2,3,9-trimethyl-4-(4-((3-(4-(((2S,4R)-2-methyl-1-propionyl-1,2,3,4-tetrahydroquinolin-4-yl)amino)benzamide)propyl)carbamoyl)phenyl)-6H-thieno[3,2-f][1,2,4]triazolo[4,3-a][1,4]diazepin-6-yl)acetate] |  |  |  | 27.8 | 0.53 | 1.19 | 52 |
| CCC(=O)N1c2ccccc2[C@H](Nc2ccc(C(=O)NCCCNC(=O)c3ccc(C4=N[C@@H](CC(=O)OCCCOC)c5nnc(C)n5-c5sc(C)c(C)c54)cc3)cc2)C[C@@H]1C [Compound 13h, 3-Methoxypropyl 2-((S)-2,3,9-trimethyl-4-(4-((3-(4-(((2S,4R)-2-methyl-1-propionyl-1,2,3,4-tetrahydroquinolin-4-yl)amino)benzamide)propyl)carbamoyl)phenyl)-6H-thieno[3,2-f][1,2,4]triazolo[4,3-a][1,4]diazepin-6-yl)acetate] |  |  |  | 22.8 | 0.3 | 0.34 | 76 |
